The target of assay [1] is T1, Tyrosine-protein phosphatase non-receptor type 1 (Homo sapiens) (UniProt P18031).
T1 sequence (whole entry): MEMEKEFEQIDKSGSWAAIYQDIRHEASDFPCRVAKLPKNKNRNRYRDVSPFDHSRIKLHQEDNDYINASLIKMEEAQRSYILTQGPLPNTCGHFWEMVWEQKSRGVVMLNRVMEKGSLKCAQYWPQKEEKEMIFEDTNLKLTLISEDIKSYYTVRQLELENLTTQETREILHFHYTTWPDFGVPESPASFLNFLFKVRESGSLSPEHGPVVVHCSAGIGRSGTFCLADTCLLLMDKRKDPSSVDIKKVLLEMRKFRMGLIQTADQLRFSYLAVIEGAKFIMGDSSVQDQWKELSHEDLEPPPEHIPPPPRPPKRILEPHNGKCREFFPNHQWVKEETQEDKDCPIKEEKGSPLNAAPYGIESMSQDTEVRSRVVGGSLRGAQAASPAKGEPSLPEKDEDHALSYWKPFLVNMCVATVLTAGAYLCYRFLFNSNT
Kind of assay: Inhibition of PTP1B (unknown origin) phosphatase activity assessed as fluorescence at 100 uM by BMG plate reader in the presence of 0.005% Tween-20.

For assay [2], the target named is T2, M-phase inducer phosphatase 2 (Homo sapiens, UniProt P30305).
T2 sequence (P30305 whole entry): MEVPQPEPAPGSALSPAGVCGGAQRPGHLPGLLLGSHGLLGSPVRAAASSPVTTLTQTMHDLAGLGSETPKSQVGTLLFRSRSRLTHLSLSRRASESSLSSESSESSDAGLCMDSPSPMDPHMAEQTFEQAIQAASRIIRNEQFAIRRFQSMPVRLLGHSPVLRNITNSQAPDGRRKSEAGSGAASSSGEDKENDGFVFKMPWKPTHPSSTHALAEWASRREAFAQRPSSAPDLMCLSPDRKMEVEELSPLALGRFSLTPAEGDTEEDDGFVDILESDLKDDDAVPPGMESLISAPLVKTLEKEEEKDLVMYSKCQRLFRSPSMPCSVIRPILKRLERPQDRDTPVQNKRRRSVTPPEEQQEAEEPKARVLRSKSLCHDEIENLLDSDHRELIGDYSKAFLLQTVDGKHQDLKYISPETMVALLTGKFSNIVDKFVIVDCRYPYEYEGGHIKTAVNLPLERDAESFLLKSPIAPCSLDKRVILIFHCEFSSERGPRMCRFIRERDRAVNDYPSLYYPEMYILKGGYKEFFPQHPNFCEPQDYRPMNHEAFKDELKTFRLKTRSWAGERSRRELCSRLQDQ
Kind of assay: Inhibition of Cdc25B (unknown origin) phosphatase activity assessed as fluorescence by BMG plate reader in the presence of 0.005% Tween-20.

Assay [3] deals with T3, Dual specificity protein phosphatase 3 (Homo sapiens, UniProt P51452). Kind of assay: Inhibition of human His-tagged VHR phosphatase activity assessed as fluorescence by BMG plate reader in the absence of detergent.
T3 sequence (P51452 whole entry): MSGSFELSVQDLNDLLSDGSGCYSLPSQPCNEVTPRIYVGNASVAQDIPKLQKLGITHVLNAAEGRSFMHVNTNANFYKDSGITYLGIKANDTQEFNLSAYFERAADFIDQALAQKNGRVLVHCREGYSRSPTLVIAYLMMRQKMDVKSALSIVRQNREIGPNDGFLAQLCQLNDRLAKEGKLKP
Assay [4] is filed under the species Homo sapiens. The assay can be described thus: Inhibition of MKP-5/p38 (unknown origin) phosphatase activity assessed as fluorescence at 100 uM by BMG plate reader in the presence of 0.005% Tween-20.
The target of assay [5] is T3, Dual specificity protein phosphatase 3. The assay can be described thus: Inhibition of human His-tagged VHR phosphatase activity assessed as fluorescence by BMG plate reader in the presence of 0.005% Tween-20.
Assay [6] addresses T4, M-phase inducer phosphatase 1 (Homo sapiens, UniProt P30304).
T4 sequence (P30304 whole entry): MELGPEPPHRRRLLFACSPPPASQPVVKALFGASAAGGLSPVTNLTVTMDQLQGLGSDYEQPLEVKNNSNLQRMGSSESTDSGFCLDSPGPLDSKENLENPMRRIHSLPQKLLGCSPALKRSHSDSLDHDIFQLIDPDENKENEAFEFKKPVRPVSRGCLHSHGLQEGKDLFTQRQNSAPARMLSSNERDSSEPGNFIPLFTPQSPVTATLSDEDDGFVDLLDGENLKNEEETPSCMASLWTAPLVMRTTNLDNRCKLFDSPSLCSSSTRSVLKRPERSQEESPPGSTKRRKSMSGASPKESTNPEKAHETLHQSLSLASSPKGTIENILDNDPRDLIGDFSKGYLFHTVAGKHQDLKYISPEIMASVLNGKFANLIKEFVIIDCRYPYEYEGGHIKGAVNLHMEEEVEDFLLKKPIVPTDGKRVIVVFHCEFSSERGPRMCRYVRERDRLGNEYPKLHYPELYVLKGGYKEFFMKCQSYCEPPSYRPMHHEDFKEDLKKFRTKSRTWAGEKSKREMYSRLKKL
The assay can be described thus: Inhibition of Cdc25A (unknown origin) phosphatase activity assessed as fluorescence by BMG plate reader in the presence of 0.005% Tween-20.

The target in assay [7] is T5, M-phase inducer phosphatase 3 (Homo sapiens, UniProt P30307).
T5 sequence (P30307 whole entry): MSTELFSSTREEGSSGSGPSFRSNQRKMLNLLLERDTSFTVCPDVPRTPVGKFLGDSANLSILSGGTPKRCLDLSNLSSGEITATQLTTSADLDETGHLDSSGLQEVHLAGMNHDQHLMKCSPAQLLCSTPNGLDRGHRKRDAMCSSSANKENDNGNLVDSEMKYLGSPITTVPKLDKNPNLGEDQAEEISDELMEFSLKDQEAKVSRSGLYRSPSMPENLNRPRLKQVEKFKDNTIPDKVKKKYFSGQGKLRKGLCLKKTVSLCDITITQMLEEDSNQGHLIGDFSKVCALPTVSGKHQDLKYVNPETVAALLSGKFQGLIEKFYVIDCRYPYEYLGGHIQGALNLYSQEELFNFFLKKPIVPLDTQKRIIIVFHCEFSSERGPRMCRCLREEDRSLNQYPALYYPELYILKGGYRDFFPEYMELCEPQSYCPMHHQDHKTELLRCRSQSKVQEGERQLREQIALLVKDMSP
The assay can be described thus: Inhibition of Cdc25C (unknown origin) phosphatase activity assessed as fluorescence by BMG plate reader in the absence of detergent.

The target of assay [8] is T5, M-phase inducer phosphatase 3. Kind of assay: Inhibition of Cdc25C (unknown origin) phosphatase activity assessed as fluorescence by BMG plate reader in the presence of 0.005% Tween-20.
Assay [9] is filed under the species Homo sapiens. Kind of assay: Inhibition of alkaline phosphatase (unknown origin) phosphatase activity assessed as fluorescence at 100 uM by BMG plate reader in the presence of 0.005% Tween-20.
Assay [10] addresses T2, M-phase inducer phosphatase 2. Kind of assay: Inhibition of Cdc25B (unknown origin) phosphatase activity assessed as fluorescence by BMG plate reader in the absence of detergent.
The target in assay [11] is T4, M-phase inducer phosphatase 1. The assay can be described thus: Inhibition of Cdc25A (unknown origin) phosphatase activity assessed as fluorescence by BMG plate reader in the absence of detergent.

Molecules are shown by their SMILES.

The record followed here is ChEMBL document CHEMBL3217647, “Prospective use of molecular field points in ligand-based virtual screening: efficient identification of new reversible Cdc25 inhibitors” (Medchemcomm, 2013).

A word on the inhibition: it is the change of the read-out against control, counted positive when it falls. Usually IC50 stands for the concentration that inhibits the measured activity by half.

In the case of `CCOc1ccc(-c2nc(-c3ccc4c(c3)CC(=O)N4C)cs2)cc1`, the inhibition (in [1]; in the assay filed under Homo sapiens [4]; in the assay filed under Homo sapiens [9]) was under 50% each time. The half-inhibitory concentration (IC50) in assay [2] is 50 µM; in assay [3], 10.6 µM; in assay [5], 64.5 µM; in assay [6], 33.6 µM; in assay [7], over 100 µM; in assay [8], 47.6 µM. For the same molecule, the values for the concentration for half-maximal inhibition (IC50) in [10] and in assay [11] were 22.7 µM and 9.5 µM, respectively.
Regarding `CCOc1ccc(-c2nc(-c3ccc4[nH]c(=O)[nH]c4c3)cs2)cc1`, the inhibition (in assay [1]; in the assay listed under Homo sapiens [4]; in the assay filed under Homo sapiens [9]) was under 50% throughout. The 50% inhibitory concentration (IC50) is 17.9 µM in [2]; 1.9 µM in [3]; 20.1 µM in assay [5]; 23.6 µM in [6]; 10.2 µM in [7]; 47.3 µM in assay [8]. The IC50 was determined as 8.9 µM in assay [10] and 2.4 µM in assay [11].
